Results as given in PubChem BioAssay (NCI).
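48-hour exposure; five concentrations; linearly interpolated endpoints. TGI denotes the concentration required for complete inhibition of growth.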

What was measured:
Test in all cases: NCI tumour cell line growth inhibition, 48 h
M19-MEL melanoma = tested on: M19-MEL melanoma
SNB-78 CNS = tested on: SNB-78 CNS
OVCAR-5 ovarian = tested on: OVCAR-5 ovarian
TK-10 renal = tested on: TK-10 renal
MALME-3M melanoma = tested on: MALME-3M melanoma
OVCAR-3 ovarian = tested on: OVCAR-3 ovarian
DMS 273 small cell lung = tested on: DMS 273 small cell lung
A549 NSCLC = tested on: A549 NSCLC
KM12 colon = tested on: KM12 colon
SF-268 CNS = tested on: SF-268 CNS
NCI-H522 lung = tested on: NCI-H522 lung
SK-MEL-5 melanoma = tested on: SK-MEL-5 melanoma
HL-60(TB) leukemia = tested on: HL-60(TB) leukemia
RXF-631 renal = tested on: RXF-631 renal
SR leukemia = tested on: SR leukemia
SK-MEL-28 melanoma = tested on: SK-MEL-28 melanoma
NCI-H23 lung = tested on: NCI-H23 lung
SNB-19 CNS = tested on: SNB-19 CNS
HOP-18 NSCLC = tested on: HOP-18 NSCLC
OVCAR-8 ovarian = tested on: OVCAR-8 ovarian
UACC-62 melanoma = tested on: UACC-62 melanoma
HCT-15 colon = tested on: HCT-15 colon
KM20L2 colon = tested on: KM20L2 colon
RPMI-8226 leukemia = tested on: RPMI-8226 leukemia
HOP-62 NSCLC = tested on: HOP-62 NSCLC
HCT-116 colon = tested on: HCT-116 colon
OVCAR-4 ovarian = tested on: OVCAR-4 ovarian
UO-31 renal = tested on: UO-31 renal
EKVX NSCLC = tested on: EKVX NSCLC
M14 melanoma = tested on: M14 melanoma
SF-539 CNS = tested on: SF-539 CNS
SN12C renal = tested on: SN12C renal
LOX IMVI melanoma = tested on: LOX IMVI melanoma
MOLT-4 leukemia = tested on: MOLT-4 leukemia
RXF 393 renal = tested on: RXF 393 renal
CAKI-1 renal = tested on: CAKI-1 renal
NCI-H226 lung = tested on: NCI-H226 lung
A498 renal = tested on: A498 renal
IGROV1 ovarian = tested on: IGROV1 ovarian
DMS 114 small cell lung = tested on: DMS 114 small cell lung
NCI-H460 lung = tested on: NCI-H460 lung
K-562 leukemia = tested on: K-562 leukemia
786-0 renal = tested on: 786-0 renal
HOP-92 NSCLC = tested on: HOP-92 NSCLC
COLO 205 colon = tested on: COLO 205 colon
HCC-2998 colon = tested on: HCC-2998 colon
HT29 colon = tested on: HT29 colon
LXFL 529 NSCLC = tested on: LXFL 529 NSCLC
U251 CNS = tested on: U251 CNS
CCRF-CEM leukemia = tested on: CCRF-CEM leukemia
SK-MEL-2 melanoma = tested on: SK-MEL-2 melanoma
DLD-1 colon = tested on: DLD-1 colon
SF-295 CNS = tested on: SF-295 CNS
ACHN renal = tested on: ACHN renal
UACC-257 melanoma = tested on: UACC-257 melanoma
SK-OV-3 ovarian = tested on: SK-OV-3 ovarian
SNB-75 CNS = tested on: SNB-75 CNS
SW-620 colon = tested on: SW-620 colon
NCI/ADR-RES ovarian = tested on: NCI/ADR-RES ovarian
P388/ADR leukemia = tested on: P388/ADR leukemia
P388 leukemia = tested on: P388 leukemia
SN12K1 renal = tested on: SN12K1 renal
MCF7 breast = tested on: MCF7 breast
XF 498 CNS = tested on: XF 498 CNS

`CC(=O)NC1C(OCc2ccccc2)OC(COC(=O)CCCCCCCCCCNC(=O)CCNc2ccc([N+](=O)[O-])c3[nH]c4ccc(O)cc4c(=O)c23)C(O)C1OC(C)C(=O)N[C@H](C(=O)N[C@H](CCC(=O)O)C(N)=O)C(C)C` (stereo partly drawn) was tested, and the TGI (M19-MEL melanoma) was > 100 µM, the TGI (SNB-78 CNS) was > 100 µM and the TGI (OVCAR-5 ovarian) was > 100 µM. For the same compound, the TGI (TK-10 renal) was > 100 µM, the TGI (MALME-3M melanoma) was > 100 µM and the TGI (OVCAR-3 ovarian) was > 100 µM. For the same compound, the TGI (DMS 273 small cell lung) was > 100 µM, the TGI (A549 NSCLC) was > 100 µM and the TGI (KM12 colon) was > 100 µM. For the same compound, the TGI (SF-268 CNS) was > 100 µM, the TGI (NCI-H522 lung) was 40.4 µM and the TGI (SK-MEL-5 melanoma) was > 100 µM. The TGI (HL-60(TB) leukemia) was > 100 µM, the TGI (RXF-631 renal) was > 100 µM and the TGI (SR leukemia) was 45.4 µM. For the same compound, the TGI (SK-MEL-28 melanoma) was > 100 µM, the TGI (NCI-H23 lung) was > 100 µM and the TGI (SNB-19 CNS) was > 100 µM. For the same compound, the TGI (HOP-18 NSCLC) was > 100 µM, the TGI (OVCAR-8 ovarian) was > 100 µM and the TGI (UACC-62 melanoma) was > 100 µM. The TGI (HCT-15 colon) was > 100 µM, the TGI (KM20L2 colon) was > 100 µM and the TGI (RPMI-8226 leukemia) was 46.6 µM. For the same compound, the TGI (HOP-62 NSCLC) was > 100 µM, the TGI (HCT-116 colon) was > 100 µM and the TGI (OVCAR-4 ovarian) was > 100 µM. For the same compound, the TGI (UO-31 renal) was > 100 µM, the TGI (EKVX NSCLC) was > 100 µM and the TGI (M14 melanoma) was > 100 µM. For the same compound, the TGI (SF-539 CNS) was > 100 µM, the TGI (SN12C renal) was > 100 µM and the TGI (LOX IMVI melanoma) was 89.2 µM. For the same compound, the TGI (MOLT-4 leukemia) was > 100 µM, the TGI (RXF 393 renal) was > 100 µM and the TGI (CAKI-1 renal) was > 100 µM. For the same compound, the TGI (NCI-H226 lung) was > 100 µM, the TGI (A498 renal) was > 100 µM and the TGI (IGROV1 ovarian) was > 100 µM. For the same compound, the TGI (DMS 114 small cell lung) was > 100 µM, the TGI (NCI-H460 lung) was > 100 µM and the TGI (K-562 leukemia) was > 100 µM. The TGI (786-0 renal) was > 100 µM, the TGI (HOP-92 NSCLC) was 88.4 µM and the TGI (COLO 205 colon) was > 100 µM. For the same compound, the TGI (HCC-2998 colon) was > 100 µM, the TGI (HT29 colon) was > 100 µM and the TGI (LXFL 529 NSCLC) was > 100 µM. The TGI (U251 CNS) was > 100 µM, the TGI (CCRF-CEM leukemia) was 82.5 µM and the TGI (SK-MEL-2 melanoma) was > 100 µM. For the same compound, the TGI (DLD-1 colon) was > 100 µM, the TGI (SF-295 CNS) was > 100 µM and the TGI (ACHN renal) was > 100 µM. The TGI (UACC-257 melanoma) was > 100 µM, the TGI (SK-OV-3 ovarian) was > 100 µM and the TGI (SNB-75 CNS) was 64.8 µM.

With `CCn1cc(C(=O)O)c(=O)c2cc(F)c(N3CCNCC3)nc21` the TGI (M19-MEL melanoma) was > 100 µM, the TGI (SNB-78 CNS) was > 100 µM and the TGI (OVCAR-5 ovarian) was > 100 µM. The TGI (TK-10 renal) was > 100 µM, the TGI (MALME-3M melanoma) was > 100 µM and the TGI (OVCAR-3 ovarian) was > 100 µM. The TGI (DMS 273 small cell lung) was > 100 µM, the TGI (A549 NSCLC) was > 100 µM and the TGI (KM12 colon) was > 100 µM. The TGI (SF-268 CNS) was > 100 µM, the TGI (NCI-H522 lung) was > 100 µM and the TGI (SK-MEL-5 melanoma) was > 100 µM. The TGI (HL-60(TB) leukemia) was > 100 µM, the TGI (RXF-631 renal) was > 100 µM and the TGI (SR leukemia) was > 100 µM. For the same compound, the TGI (SK-MEL-28 melanoma) was > 100 µM, the TGI (NCI-H23 lung) was > 100 µM and the TGI (SNB-19 CNS) was > 100 µM. For the same compound, the TGI (HOP-18 NSCLC) was > 100 µM, the TGI (OVCAR-8 ovarian) was > 100 µM and the TGI (UACC-62 melanoma) was > 100 µM. For the same compound, the TGI (HCT-15 colon) was > 100 µM, the TGI (RPMI-8226 leukemia) was > 100 µM and the TGI (HOP-62 NSCLC) was > 100 µM. The TGI (HCT-116 colon) was > 100 µM, the TGI (OVCAR-4 ovarian) was > 100 µM and the TGI (UO-31 renal) was > 100 µM. The TGI (EKVX NSCLC) was > 100 µM, the TGI (M14 melanoma) was > 100 µM and the TGI (SF-539 CNS) was > 100 µM. For the same compound, the TGI (SN12C renal) was > 100 µM, the TGI (LOX IMVI melanoma) was > 100 µM and the TGI (MOLT-4 leukemia) was > 100 µM. The TGI (NCI-H226 lung) was > 100 µM, the TGI (A498 renal) was > 100 µM and the TGI (IGROV1 ovarian) was > 100 µM. For the same compound, the TGI (DMS 114 small cell lung) was > 100 µM, the TGI (SW-620 colon) was > 100 µM and the TGI (NCI-H460 lung) was > 100 µM. For the same compound, the TGI (K-562 leukemia) was > 100 µM, the TGI (786-0 renal) was > 100 µM and the TGI (HOP-92 NSCLC) was > 100 µM. The TGI (COLO 205 colon) was > 100 µM, the TGI (HCC-2998 colon) was > 100 µM and the TGI (HT29 colon) was > 100 µM. For the same compound, the TGI (LXFL 529 NSCLC) was > 100 µM, the TGI (U251 CNS) was > 100 µM and the TGI (CCRF-CEM leukemia) was > 100 µM. For the same compound, the TGI (SK-MEL-2 melanoma) was > 100 µM, the TGI (DLD-1 colon) was > 100 µM and the TGI (SF-295 CNS) was > 100 µM. For the same compound, the TGI (ACHN renal) was > 100 µM, the TGI (UACC-257 melanoma) was > 100 µM and the TGI (SK-OV-3 ovarian) was > 100 µM. The TGI (SNB-75 CNS) was > 100 µM.

`CSc1nc(NC2OC(CO)C(O)C(O)C2O)c(N)c(=O)[nH]1` (stereo not drawn) was tested, and the TGI (M19-MEL melanoma) was > 100 µM, the TGI (SNB-78 CNS) was > 100 µM and the TGI (OVCAR-5 ovarian) was > 100 µM. For the same compound, the TGI (MALME-3M melanoma) was > 100 µM, the TGI (OVCAR-3 ovarian) was > 100 µM and the TGI (DMS 273 small cell lung) was > 100 µM. The TGI (A549 NSCLC) was > 100 µM, the TGI (KM12 colon) was > 100 µM and the TGI (SF-268 CNS) was > 100 µM. The TGI (NCI-H522 lung) was > 100 µM, the TGI (SK-MEL-5 melanoma) was > 100 µM and the TGI (HL-60(TB) leukemia) was > 100 µM. For the same compound, the TGI (SK-MEL-28 melanoma) was > 100 µM, the TGI (NCI-H23 lung) was > 100 µM and the TGI (SNB-19 CNS) was > 100 µM. The TGI (HOP-18 NSCLC) was > 100 µM, the TGI (OVCAR-8 ovarian) was > 100 µM and the TGI (UACC-62 melanoma) was > 100 µM. The TGI (HCT-15 colon) was > 100 µM, the TGI (KM20L2 colon) was > 100 µM and the TGI (RPMI-8226 leukemia) was > 100 µM. For the same compound, the TGI (HOP-62 NSCLC) was > 100 µM, the TGI (HCT-116 colon) was > 100 µM and the TGI (OVCAR-4 ovarian) was > 100 µM. For the same compound, the TGI (UO-31 renal) was > 100 µM, the TGI (EKVX NSCLC) was > 100 µM and the TGI (SF-539 CNS) was > 100 µM. For the same compound, the TGI (SN12C renal) was > 100 µM, the TGI (LOX IMVI melanoma) was > 100 µM and the TGI (MOLT-4 leukemia) was > 100 µM. The TGI (RXF 393 renal) was > 100 µM, the TGI (NCI-H226 lung) was > 100 µM and the TGI (A498 renal) was > 100 µM. The TGI (IGROV1 ovarian) was > 100 µM, the TGI (DMS 114 small cell lung) was > 100 µM and the TGI (SW-620 colon) was > 100 µM. For the same compound, the TGI (NCI-H460 lung) was > 100 µM, the TGI (K-562 leukemia) was > 100 µM and the TGI (HOP-92 NSCLC) was > 100 µM. The TGI (NCI/ADR-RES ovarian) was > 100 µM, the TGI (COLO 205 colon) was > 100 µM and the TGI (HCC-2998 colon) was > 100 µM. The TGI (P388/ADR leukemia) was > 100 µM, the TGI (HT29 colon) was > 100 µM and the TGI (U251 CNS) was > 100 µM. For the same compound, the TGI (CCRF-CEM leukemia) was > 100 µM, the TGI (SK-MEL-2 melanoma) was > 100 µM and the TGI (DLD-1 colon) was > 100 µM. For the same compound, the TGI (SF-295 CNS) was > 100 µM, the TGI (P388 leukemia) was > 100 µM and the TGI (SN12K1 renal) was > 100 µM. For the same compound, the TGI (UACC-257 melanoma) was > 100 µM, the TGI (SK-OV-3 ovarian) was > 100 µM and the TGI (MCF7 breast) was > 100 µM. The TGI (XF 498 CNS) was > 100 µM and the TGI (SNB-75 CNS) was > 100 µM.
